Measurements taken from patent US5391540A, “Substituted pyridine compounds” (Rohm and Haas Company, priority 1993, dated 1995).

Columns and labels:
Test in all cases: Pre-emergent herbicidal activity (Table A)
Assay type in all cases: in vivo
Seedling Johnsongrass = conditions: Sorghum halepense, pre-emergence, Sejg, 11.2 kg/ha, 10-14 days, read-out: herbicidal rating (% inhibition)
Procedure: (§1) Tables A and B summarize results of tests conducted to determine the pre-emergent herbicidal activity of the compounds of this invention. The herbicidal ratings used in Tables A and B were assigned according to a scale based on the percent inhibition of each plant species. The herbicide rating symbols in Tables A and B are defined as follows: […]
(§2) One set of pre-emergent tests was conducted as follows:
(§3) Topsoil was placed in a pan and compacted to a depth of 0.95 to 1.27 cm. from the top of the pan. A predetermined number of seeds of each of several monocotyledonous and dicotyledonous annual plant species and/or vegetative propagules of various perennial plant species were placed on top of the soil. The soil required to level fill a pan after seeding or adding vegetative propagules was weighed into another pan. A known amount of the test compound dissolved or suspended in an organic solvent or water and applied in acetone or water as a carrier was thoroughly mixed with this cover soil, and the herbicide/soil mixture was used as a cover layer for the previously prepared pan. In Table A below the amounts of active ingredient were all equivalent to an application rate of 11.2 kilograms/hectare (kg/ha). After treatment, the pans were moved to a greenhouse bench where they were watered as needed to give adequate moisture for germination and growth.
(§4) Approximately 10-14 days (usually 11 days) after planting and treating, the plants were observed and the results recorded.
(§5) The plant species usually regarded as weeds which were utilized in one set of pre-emergent activity tests, the data for which are shown in Table A, are identified by letter headings printed diagonally above the columns according to the following legend: […]

Annual Bluegrass = conditions: pre-emergence, Anbg, 11.2 kg/ha, 10-14 days, read-out: herbicidal rating (% inhibition)
Procedure: as §1, §2, §3, §4, §5

Morningglory = conditions: Ipomoea, pre-emergence, Mogl, 11.2 kg/ha, 10-14 days, read-out: herbicidal rating (% inhibition)
Summary of the method: (§6)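 Seeds or vegetative propagules were set on topsoil compacted to 0.95 to 1.27 cm below the pan rim, then covered with soil thoroughly mixed with a known amount of test compound in acetone or water carrier. Ratings follow a scale of percent inhibition per species.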

Velvetleaf = conditions: Abutilon theophrasti, pre-emergence, Vele, 11.2 kg/ha, 10-14 days, read-out: herbicidal rating (% inhibition)
Summary of the method: as §6

Yellow Nutsedge = conditions: Cyperus, pre-emergence, Yens, 11.2 kg/ha, 10-14 days, read-out: herbicidal rating (% inhibition)
Summary of the method: as §6

Downy Brome = conditions: Bromus tectorum, pre-emergence, Dobr, 11.2 kg/ha, 10-14 days, read-out: herbicidal rating (% inhibition)
Summary of the method: as §6

Barnyardgrass = conditions: Echinochloa crus-galli, pre-emergence, Bygr, 11.2 kg/ha, 10-14 days, read-out: herbicidal rating (% inhibition)
Summary of the method: as §6

Cocklebur = conditions: Xanthium strumarium, pre-emergence, Cobu, 11.2 kg/ha, 10-14 days, read-out: herbicidal rating (% inhibition)
Summary of the method: as §6

Rhizome Johnsongrass = conditions: Sorghum halepense, pre-emergence, Rhjg, 11.2 kg/ha, 10-14 days, read-out: herbicidal rating (% inhibition)
Summary of the method: as §6

Canada thistle = conditions: Cirsium arvense, pre-emergence, Cath, 11.2 kg/ha, 10-14 days, read-out: herbicidal rating (% inhibition)
Summary of the method: as §6

Common Lambsquarters = conditions: Chenopodium album, pre-emergence, Colq, 11.2 kg/ha, 10-14 days, read-out: herbicidal rating (% inhibition)
Summary of the method: as §6

Pennsylvania Smartweed = conditions: pre-emergence, Pesw, 11.2 kg/ha, 10-14 days, read-out: herbicidal rating (% inhibition)
Summary of the method: as §6

Quackgrass = conditions: pre-emergence, Rhqg, 11.2 kg/ha, 10-14 days, read-out: herbicidal rating (% inhibition)
Summary of the method: as §6

SMILES | inhibition at 11200 g/ha (Seedling Johnsongrass) | inhibition at 11200 g/ha (Annual Bluegrass) | inhibition at 11200 g/ha (Morningglory) | inhibition at 11200 g/ha (Velvetleaf) | inhibition at 11200 g/ha (Yellow Nutsedge) | inhibition at 11200 g/ha (Downy Brome) | inhibition at 11200 g/ha (Barnyardgrass) | inhibition at 11200 g/ha (Cocklebur) | inhibition at 11200 g/ha (Rhizome Johnsongrass) | inhibition at 11200 g/ha (Canada thistle) | inhibition at 11200 g/ha (Common Lambsquarters) | inhibition at 11200 g/ha (Pennsylvania Smartweed) | inhibition at 11200 g/ha (Quackgrass)
COC(=O)c1c(OC)nc(C(F)(F)F)c(NC(=O)CCCBr)c1CC(C)C [Compound 120, 3-pyridinecarboxylic acid, 5-[(4-bromo-1-oxobutyl)amino]-2-methoxy-4-(2-methylpropyl)-6-(trifluoromethyl)-, methyl ester] | 75 to 100% | 75 to 100% | 75 to 100% | 75 to 100% | 50 to 74% | 75 to 100% | 75 to 100% | 75 to 100% |  |  |  |  | 
COC(=O)c1c(OC)nc(C(F)(F)F)c(C(=O)n2cncn2)c1CC(C)C [Compound 60, 3-pyridinecarboxylic acid, 2-methoxy-4-(2-methylpropyl)-5-(1H-1,2,4-triazo1-1-ylcarbonyl)-6-(trifluoromethyl)-, methyl ester] |  |  | 75 to 100% | 75 to 100% | 0 to 24% | 75 to 100% | 75 to 100% | 25 to 49% | 75 to 100% | 75 to 100% | 75 to 100% | 75 to 100% | 75 to 100%
COC(=O)c1c(OC)nc(C(F)(F)F)c(C(=O)OC)c1CC1CC1 [Compound 92, 3,5-pyridinedicarboxylic acid, 4-(cyclopropylmethyl)-2-methoxy-6-(trifluoromethyl)-, dimethyl ester] |  |  | 75 to 100% | 75 to 100% | 75 to 100% | 75 to 100% | 75 to 100% | 50 to 74% | 0 to 24% | 75 to 100% | 75 to 100% | 75 to 100% | 75 to 100%
COC(=O)c1c(OC)nc(C(F)(F)F)c(C2=NC(C)CS2)c1CC(C)C (stereo not drawn) [Compound 74, 3-pyridinecarboxylic acid, 5-(4,5-dihydro-4-methy1-2-thiazolyl)-2-methoxy-4-(2-methylpropyl)-6-(trifluoromethyl)-, methyl ester] |  |  | 75 to 100% | 75 to 100% | 25 to 49% | 75 to 100% | 75 to 100% | 75 to 100% | 75 to 100% | 75 to 100% | 75 to 100% | 75 to 100% | 75 to 100%
CCOC(=O)c1c(C(F)(F)F)nc(OC)c(C(=O)OC)c1CC(C)C [Compound 44, 3,5-pyridinedicarboxylic acid, 2-methoxy-4-(2-methylpropyl)-6-(trifluoromethyl)-, 5-ethyl 3-methyl ester] |  |  | 75 to 100% | 75 to 100% | 75 to 100% | 75 to 100% | 75 to 100% | 25 to 49% | 75 to 100% | 75 to 100% | 75 to 100% | 75 to 100% | 75 to 100%
CCOC(=O)c1c(OC(C)C)nc(C(F)(F)F)c(C(=O)OC)c1CC(C)C [Compound 5, 3,5-pyridinedicarboxylic acid, 2-(1-methylethoxy)-4-(2-methylpropyl)-6-(trifluoromethyl)-, 3-ethyl 5-methyl ester] |  |  | 0 to 24% | 0 to 24% | 0 to 24% | 75 to 100% | 75 to 100% | 0 to 24% | 75 to 100% | 0 to 24% | 75 to 100% | 25 to 49% | 50 to 74%
COC(=O)c1c(OC)nc(C(F)(F)F)c(-n2cccc2)c1CC(C)C [Compound 15, 3-pyridinecarboxylic acid, 2-methoxy-4-(2-methylpropyl)-5-(1H-pyrro1-1-yl)-6-(trifluoromethyl)-, methyl ester] |  |  | 75 to 100% | 75 to 100% | 25 to 49% | 75 to 100% | 75 to 100% | 0 to 24% | 75 to 100% | 75 to 100% | 75 to 100% | 75 to 100% | 75 to 100%
C#CCOc1nc(C(F)(F)F)c(C(=O)OC)c(CC(C)C)c1C(=O)OC [Compound 83, 3,5-pyridinedicarboxylic acid, 4-(2-methylpropyl)-2-(2-propynyloxy)-6-(trifluoromethyl)-, dimethyl ester] |  |  | 75 to 100% | 75 to 100% | 0 to 24% | 75 to 100% | 75 to 100% | 0 to 24% | 25 to 49% | 25 to 49% | 75 to 100% | 75 to 100% | 75 to 100%
COC(=O)c1c(OC)nc(C(F)(F)F)c(N=CN(C)C)c1CC(C)C [Compound 62, 3-pyridinecarboxylic acid, 5-[[(dimethylamino)methylene]amino]-2-methoxy-4-(2-methylpropyl)-6-(trifluoromethyl)-, methyl ester] |  |  | 75 to 100% | 75 to 100% | 25 to 49% | 75 to 100% | 75 to 100% | 25 to 49% | 50 to 74% | 75 to 100% | 75 to 100% | 75 to 100% | 75 to 100%
COC(=O)c1c(OC)nc(C(F)(F)F)c(C(=O)N2CCC2)c1CC(C)C [Compound 68, 3-pyridinecarboxylic acid, 5-(1-azetidinylcarbonyl)-2-methoxy-4-(2-methylpropyl)-6-(trifluoromethyl)-, methyl ester] |  |  | 50 to 74% | 0 to 24% | 0 to 24% | 75 to 100% | 75 to 100% | 0 to 24% | 25 to 49% | 25 to 49% | 75 to 100% | 25 to 49% | 75 to 100%
CCOC(=O)c1c(C(F)(F)C(F)(F)F)nc(OC)c(C(=O)OC)c1CC(C)C [Compound 11, 3,5-pyridinedicarboxylic acid, 2-methoxy-4-(2-methylpropyl)-6-(pentafluoroethyl)-, 5-ethyl 3-methyl ester] |  |  | 50 to 74% | 25 to 49% | 75 to 100% | 75 to 100% | 75 to 100% | 0 to 24% | 0 to 24% | 25 to 49% | 75 to 100% | 75 to 100% | 75 to 100%
COC(=O)c1c(OC)nc(C(F)(F)F)c(C2=NC(C)(C)CS2)c1CC(C)C [Compound 75, 3-pyridinecarboxylic acid, 5-(4,5-dihydro-4,4-dimethy1-2-thiazolyl)-2-methoxy-4-(2-methylpropyl)-6-(trifluoromethyl)-, methyl ester] |  |  | 75 to 100% | 75 to 100% | 75 to 100% | 75 to 100% | 75 to 100% | 50 to 74% | 25 to 49% | 75 to 100% | 75 to 100% | 75 to 100% | 75 to 100%
